Assay results as given in BindingDB's records for doi:10.1016/j.bmcl.2006.12.076 (Glaxosmithkline, 2007).

Columns and labels:
[1] = Antagonist activity at human recombinant CCR8 expressed in Th2 cells assessed as I309 mediated migration by chemotaxis assay
[2] = Antagonist activity at human recombinant CCR8 expressed in HUT78 cells assessed as I309-mediated migration by chemotaxis assay

IC50 [1]: 100 nM | IC50 [2]: 501 nM
SMILES: COc1ccc2nccc([C@@H]3CN(C4CCN(Cc5cc6ccccc6[nH]5)CC4)C(=O)O3)c2c1 [SB-649701]
